Data: US20240108634A1, “COMPOSITIONS AND METHODS FOR INHIBITING YAP” (The United States Government as represented by the …, priority 2021, published 2024)

Assays:
normal human neurons = assay: TUNEL staining of normal human neurons; assay type: cell-based; settings: 48 h exposures
Source text: Data shown are mean+S.D., n=3.
Materials and Methods. Cell culture, vectors and reagents. Normal mature human neurons were obtained from ScienCell (Carlsbad, CA). Lines were routinely tested to confirm the absence of mycoplasma and authenticated by short tandem repeat profiling (ATCC). The myc-tagged TEAD (pRK5-Myc-TEAD1) and HA-tagged YAP1 (pCl-HA-YAP) vectors were used for mammalian expression and TEAD was subcloned into pGEX-2TK, while YAP was subcloned into pET-14b for bacterial expression and purification. DNA transfections were performed using Effectene transfection reagent according to the manufacturer (QIAGEN) and lentiviral transductions were performed as previously described (Rosenbluh J, et al. (2012) Cell 151: 1457-1473). Large-scale syntheses of NSC682769 was performed by New England Discovery Partners, Branford, CT. The other reagents including kits for ALT, AST and creatinine level determinations were from Sigma-Aldrich.

LN229 and GBM39 cells = assay: Soft agar colony formation (anchorage-independent growth); assay type: cell-based, human; settings: LN229 and GBM39, 14 days
Source text: Cells were layered in soft agar to evaluate anchorage-independent growth in the presence of the indicated concentrations of inhibitor and colonies counted following 14 days of growth. Representative crystal violet stained images are shown below. Data represent mean+S.D. of three independent experiments. […] Cells were placed in Boyden chambers and allowed to migrate towards BSA (white bars), vitronectin (light yellow bars), or fibronectin (dark yellow bars) (*, P<0.05; n=3). […] Representative crystal violet stained images are shown (200×). Data represent mean+S.D. of three independent experiments. […] Graphical data shown below represent mean+S.D. (late apoptosis; annexin V-positive, PI-positive) of three independent experiments.
Cell proliferation, clonogenic, migration, invasion and apoptosis assays. Cell proliferation was determined via Cell Titer-Glo® luminescent cell assays (Promega). Clonogenic assays were done by plating a total of 1,000 cells per well in 24-well plates in a total volume of 400 μL using a two-layered soft agar system as previously described (Masri J, et al. (2007) Cancer Res 67: 11712-11720). Cell migration assays were conducted using precoated modified Boyden chambers as previously described (Benavides-Serrato A, et al. (2017) PLoS One 12: e0176599). […]

YAP-TEAD interaction = biological target: T1, YAP-TEAD interaction (Homo sapiens, UniProt P46937); assay: Co-immunoprecipitation of myc-TEAD with HA-YAP from treated LN229 cells; assay type: cell-based; settings: LN229 GBM cells, 24 h
T1 construct: expressed in transfected cells; host or cells: LN229
T1 sequence (P46937 whole entry): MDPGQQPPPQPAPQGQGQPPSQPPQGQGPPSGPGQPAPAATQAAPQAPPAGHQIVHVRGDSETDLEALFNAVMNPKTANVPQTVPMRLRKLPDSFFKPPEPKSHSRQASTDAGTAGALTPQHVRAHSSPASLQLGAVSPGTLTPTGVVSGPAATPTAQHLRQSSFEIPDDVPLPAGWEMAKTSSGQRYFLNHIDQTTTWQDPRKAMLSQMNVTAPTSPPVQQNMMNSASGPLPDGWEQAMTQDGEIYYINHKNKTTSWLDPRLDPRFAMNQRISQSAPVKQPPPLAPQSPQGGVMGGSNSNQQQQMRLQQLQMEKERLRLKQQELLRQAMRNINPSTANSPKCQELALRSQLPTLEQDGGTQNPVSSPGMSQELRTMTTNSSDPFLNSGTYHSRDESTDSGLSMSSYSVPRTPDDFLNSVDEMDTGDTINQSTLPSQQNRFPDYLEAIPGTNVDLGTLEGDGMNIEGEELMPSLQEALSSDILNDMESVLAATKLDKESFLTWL
Description: FIGS. 1A-G show the identification of a YAP1-TEAD1 binding interface inhibitor. […] The Gal4 DBD was fused to residues 50-171 of human YAP1 and the Gal4 AD was fused to residues 194-411 of human TEAD1. These fusions were expressed in yeast containing reporters harboring Gal4 upstream activating sequences (UAS). […] Yeast expressing either p53-DBD and SV40 large T antigen-AD fusions or YAP1-DBD and TEAD1-AD fusions were plated on selective media. Compounds were pinned onto the plate surfaces by robotic transfer and subsequently examined for halo formation (indicated by red circles). Compounds inhibiting YAP1-TEAD1 mediated growth on selective media while having no effect on p53-T antigen mediated yeast growth were considered specific. Compounds which blocked the growth of both strains were considered nonspecific and were classified as having general antifungal properties. […] His-tagged YAP (amino acids 50-171 of Accession No. NP_006097) was used in a GST pull-down assay using GST-TEAD (amino acids 194-411 of Accession No. NP_068780) immobilized on glutathione resin. Pull-down products were analyzed by SDS-PAGE and silver staining. […] Cells treated with antimycin A are shown as a negative control. […] Raw binding sensorgrams obtained at each concentration were fitted to a 1:1 binding model and Kon, Koff and KD were calculated by simultaneous non-linear regression analyses.
Protein and mRNA analyses, immunoprecipitation, in vitro bead-coupled inhibitor binding assays and HPLC analyses. […] Antigen-antibody complexes were detected using appropriate horseradish peroxidase-conjugated secondary antibodies (GE Healthcare) and enhanced chemiluminescence (Amersham ECL Prime). […] For quantitative RT-PCR, extraction of RNA was performed using Trizol® (Life Technologies). Total RNA was then quantified and integrity assessed using an Agilent 2100 Bioanalyzer (Agilent Technology). […] SYBR® Green quantitative PCR (Millipore Sigma) was performed in triplicate in 96-well optical plates on an ABI Prism 7000 Sequence Detection System (Life Technologies) according to the manufacturer's instructions. […]

SMILES: COc1ccc(-c2cc(-c3ccccc3)nc3c2CC(=O)Nc2ccccc2-3)cc1OC [NSC682769]
- Toxicity to normal human neurons (normal human neurons): minimal toxicity
- Clonogenic growth in soft agar (LN229 and GBM39 cells): inhibited
- Association of YAP1 with TEAD1 in YAP1 immunoprecipitates (YAP-TEAD interaction): blocked the association of YAP1 with TEAD1
